Data on 35 compounds can be found in patent EP2818472A1, “Imidazo[4,5-c]pyridine and pyrrolo[3,2-c]pyridine compounds as G-protein-coupled receptor kinase 5 (GRK5) modulators” (Max-Planck-Gesellschaft zur Förderung der Wissenschaften …, priority 2013, dated 2014).

The test has as its system beta-TC6 cells. Description: Insulin HTRF assay (relative activity Ar) in beta-TC6 cells. The test is classed as cell-based, mouse. The settings on record: Mus musculus, Beta-TC6, 4 h, insulin HTRF, supernatant of beta-TC6 cells, incubation with test compound at 37°C for 2, 3, 4h; read-out: Ar (relative activity). An excerpt: For further screening of compounds derived from compounds described above for their ability to regulate insulin release an insulin HTRF® (Homogeneous Time-Resolved Fluorescence; Cisbio International, France) was used. This assay is based on two antibodies against insulin binding to different epitopes of insulin. One of these antibodies is coupled to Europium (Ab-Eu-Cryptate) and the other one to the fluorophore XL665 (Ab-XL665). If the insulin is secreted into the supernatant of cell culture, both antibodies can bind to insulin and come therefore into close proximity, which allows upon excitation that energy transfer between (FRET) the long-life fluorescent donor Europium (cryptate) and the acceptors XL665. FRET increases proportionally with insulin concentration.
The automated assay protocol is as follows: • On day 1, 15k beta-TC6 cells per well were seeded for 24 or 48 h in 50 µL complete medium. On day 2 or respective on day 3, the medium is removed and cells are washed with 60 µL 1xPBS and 20 µL induction buffer is added using BioTek washer. Subsequently, 10 µL Sunitininb (5 -µM f.c.) or the test compound in induction buffer; 0.5% f.c. DMSO (CyBi-well) is transferred to the cells. The cells are then incubated at 37°C for 2, 3, 4h.
First 10 µL supernatant is transferred from the cell plates in HTRF plates (CyBi-well). 10 µL of 0, 1, 2, and 4 ng/ml insulin standard controls in assay medium is used as a control. To each well 10 µL of combined 1:25 Ab-XL665 (Acc) and 1:20 Ab-Eu-Cryptate (WellMate) are added and incubated for 120 min at RT in the dark. Finally HTRF is measured on ViewLux ultra high throughput microplate imager (PerkinElmer).
The evaluation software DataFactoty derives relative activities Ar according to the following equation: Ar = (V-R(0%control))/(R(100%control) -R0%control)) × 100 [formula]
The activity of the compounds was classified according to their Ar (relative activity) into the following ranges: […]
With `Cn1cc(-c2cc3cnc(Nc4ccc5c(c4)OCCO5)cc3n2C)cn1` [Compound 128, N-(2,3-dihydro-1,4-benzodioxin-6-yl)-1-methyl-2-(1-methylpyrazol-4-yl)pyrrolo[3,2-c]pyridin-6-amine], the Emax fell in the range of 50 to 100%. As for `CC(C)c1cccc(Nc2cc3[nH]c(-c4ccc(C(=O)N(C)C)cc4)cc3cn2)c1` [Compound 36, 4-[6-(3-isopropylanilino)-1H-pyrrolo[3,2-c]pyridin-2-yl]-N,N-dimethyl-benzamide], the Emax was in the range of 0 to 30%. On to `CN(C)C(=O)c1ccc(-c2cc3c(Nc4cccc(Oc5ccccc5)c4)nccc3n2C)cc1` [Compound 223, N,N-dimethyl-4-[1-methyl-4-(3-phenoxyanilino)pyrrolo[3,2-c]pyridin-2-yl]benzamide], for which the Emax lay within 0 to 30%. Under `CNc1nc2cnc(-c3cccc(NS(C)(=O)=O)c3)cc2n1-c1cccc(F)c1` [Compound 768, N-[3-[1-(3-fluorophenyl)-2-(methylamino)imidazo[4,5-c]pyridin-6-yl]phenyl]methanesulfonamide] stands 0 to 30%; under `COc1ccc(Nc2nccc3[nH]c(-c4cccc(C)c4)nc23)cc1OC` [Compound 436, N-(3,4-dimethoxyphenyl)-2-(m-tolyl)-1H-imidazo[4,5-c]pyridin-4-amine], 50 to 100%.

In the case of `COc1ccc(Nc2nccc3c2ncn3C)cc1OC` [Compound 447, N-(3,4-dimethoxyphenyl)-1-methyl-imidazo[4,5-c]pyridin-4-amine], the Emax lay in the range of 50 to 100%. To `COc1ccc(Nc2nccc3[nH]c(-c4cccc(OC(F)(F)F)c4)nc23)cc1O` [Compound 444, 2-methoxy-5-[[2-[3-(trifluoromethoxy)phenyl]-1H-imidazo[4,5-c]pyridin-4-yl]amino]phenol] belongs 30 to 50%; to `CNc1nc2cnc(Nc3cccc(OC)c3)cc2n1-c1ccccc1` [Compound 503, N6-(3-methoxyphenyl)-N2-methyl-1-phenyl-imidazo[4,5-c]pyridine-2,6-diamine], 50 to 100%. Under `c1ccc(Cn2cnc3cnc(Nc4ccc5c(c4)OCO5)cc32)cc1` [Compound 695, N-(1,3-benzodioxol-5-yl)-1-benzyl-imidazo[4,5-c]pyridin-6-amine] stands 50 to 100%; under `CC(C)Oc1ccc(Nc2cc3[nH]c(-c4cncn4C)cc3cn2)cc1` [Compound 109, N-(4-isopropoxyphenyl)-2-(3-methylimidazol-4-yl)-1H-pyrrolo[3,2-c]pyridin-6-amine], 50 to 100%; under `CN(C)C(=O)c1ccc(-c2cc3cnc(Nc4cccc(Oc5ccccc5)c4)cc3[nH]2)cc1` [Compound 35, N,N-dimethyl-4-[6-(3-phenoxyanilino)-1H-pyrrolo[3,2-c]pyridin-2-yl]benzamide], 0 to 30%. Under `Cn1c(NCC2CCCO2)nc2cnc(Nc3ccc(F)c(Cl)c3)cc21` (centres unmarked) [Compound 643, N6-(3-chloro-4-fluoro-phenyl)-1-methyl-N2-(tetrahydrofuran-2-ylmethyl)imidazo[4,5-c]pyridine-2,6-diamine] stands 30 to 50%; under `Cn1cc(-c2cc3cnc(Nc4cccnc4)cc3n2C)cn1` [Compound 131, 1-methyl-2-(1-methylpyrazol-4-yl)-N-(3-pyridyl)pyrrolo[3,2-c]pyridin-6-amine], over 100%; under `Cn1cc(-c2cc3cnc(Nc4ccc5c(c4)OCCO5)cc3[nH]2)cn1` [Compound 122, N-(2,3-dihydro-1,4-benzodioxin-6-yl)-2-(1-methylpyrazol-4-yl)-1H-pyrrolo[3,2-c]pyridin-6-amine], 30 to 50%. In the case of `COc1cccc(-c2nc3c(NC4CCC(N)CC4)nccc3[nH]2)c1F` (centres unmarked) [Compound 476, N4-[2-(2-fluoro-3-methoxy-phenyl)-1H-imidazo[4,5-c]pyridin-4-yl]cyclohexane-1,4-diamine], the Emax fell in the range of 0 to 30%. Under `CCN(CC)CCNC(=O)c1ccc(Nc2nccc3[nH]c(-c4ccncc4)nc23)cc1` [Compound 425, N-(2-diethylaminoethyl)-4-[[2-(4-pyridyl)-1H-imidazo[4,5-c]pyridin-4-yl]amino]benzamide] stands 50 to 100%; under `CS(=O)(=O)Nc1cccc(Nc2nccc3[nH]c(-c4ccccc4Cl)nc23)c1` [Compound 463, N-[3-[[2-(2-chlorophenyl)-1H-imidazo[4,5-c]pyridin-4-yl]amino]phenyl]methanesulfonamide], 30 to 50%. Under `CNc1nc2cnc(Nc3cccc(N(C)C)c3)cc2n1CC1CC1` [Compound 573, 1-(cyclopropylmethyl)-N6-[3-(dimethylamino)phenyl]-N2-methyl-imidazo[4,5-c]pyridine-2,6-diamine] stands 30 to 50%. To `CNc1nc2cnc(Nc3ccc(OC)cc3)cc2n1Cc1ccco1` [Compound 523, 1-(2-furylmethyl)-N6-(4-methoxyphenyl)-N2-methyl-imidazo[4,5-c]pyridine-2,6-diamine] belongs 50 to 100%.

With `COc1cccc(-c2nc3c(N4CCOCC4)nccc3[nH]2)c1F` [Compound 480, 4-[2-(2-fluoro-3-methoxy-phenyl)-1H-imidazo[4,5-c]pyridin-4-yl]morpholine], the Emax lay in the range of 30 to 50%. To `COc1cc(OC)cc(-c2cc3c(Nc4ccncc4)nccc3[nH]2)c1` [Compound 291, 2-(3,5-dimethoxyphenyl)-N-(4-pyridyl)-1H-pyrrolo[3,2-c]pyridin-4-amine] belongs 50 to 100%.

`CNc1nc2cnc(Nc3ccc(S(C)(=O)=O)cc3)cc2n1-c1ccccc1` [Compound 518, N2-methyl-N6-(4-methylsulfonylphenyl)-1-phenyl-imidazo[4,5-c]pyridine-2,6-diamine]: the Emax lay within 50 to 100%.

Take `Cn1c(-c2ccco2)nc2cnc(Nc3ccccc3Cl)cc21` [Compound 710, N-(2-chlorophenyl)-2-(2-furyl)-1-methyl-imidazo[4,5-c]pyridin-6-amine]: the Emax fell in the range of 30 to 50%. To `COc1ccc(CNc2nc3cnc(Nc4ccccc4)cc3n2C)cc1OC` [Compound 604, N2-[(3,4-dimethoxyphenyl)methyl]-1-methyl-N6-phenyl-imidazo[4,5-c]pyridine-2,6-diamine] belongs 30 to 50%; to `CC(=O)Nc1ccc(Nc2cc3[nH]c(-c4cnn(C)c4)cc3cn2)cc1` [Compound 121, N-[4-[[2-(1-methylpyrazol-4-yl)-1H-pyrrolo[3,2-c]pyridin-6-yl]amino]phenyl]acetamide], over 100%.

Regarding `COc1cccc(-c2nc3c(NCC4CC4)nccc3[nH]2)c1` [Compound 376, N-(cyclopropylmethyl)-2-(3-methoxyphenyl)-1H-imidazo[4,5-c]pyridin-4-amine], the Emax lay within 30 to 50%.

On to `CNc1nc2cnc(Nc3ccc(O)cc3)cc2n1-c1cccc(C(F)(F)F)c1` [Compound 541, 4-[[2-(methylamino)-1-[3-(trifluoromethyl)phenyl]imidazo[4,5-c]pyridin-6-yl]amino]phenol], for which the Emax lay in the range of 50 to 100%.

Consider `COc1ccccc1-c1cc2c(Nc3ccc(NC(C)=O)cc3)nccc2n1C` [Compound 301, N-[4-[[2-(2-methoxyphenyl)-1-methyl-pyrrolo[3,2-c]pyridin-4-yl]amino]phenyl]acetamide], for which the Emax lay within 50 to 100%. To `Cn1c(NCc2ccccc2)nc2cnc(-c3ccc(N)nc3)cc21` [Compound 625, 6-(6-amino-3-pyridyl)-N-benzyl-1-methyl-imidazo[4,5-c]pyridin-2-amine] belongs over 100%; to `COc1ccc(Nc2nccc3[nH]c(-c4ccco4)nc23)cc1` [Compound 466, 2-(2-furyl)-N-(4-methoxyphenyl)-1H-imidazo[4,5-c]pyridin-4-amine], 50 to 100%; to `CN(C)C(=O)c1ccc(-c2cc3cnc(Nc4ccccc4)cc3n2C)cc1` [Compound 48, 4-(6-anilino-1-methyl-pyrrolo[3,2-c]pyridin-2-yl)-N,N-dimethyl-benzamide], 50 to 100%. To `CN(c1ccccc1)c1cc2c(cn1)cc(-c1cnn(C)c1)n2C` [Compound 140, N,1-dimethyl-2-(1-methylpyrazol-4-yl)-N-phenyl-pyrrolo[3,2-c]pyridin-6-amine] belongs 30 to 50%. Under `CN(C)c1cccc(Nc2cc3c(cn2)ncn3-c2ccccc2)c1` [Compound 691, N1,N1-dimethyl-N3-(1-phenylimidazo[4,5-c]pyridin-6-yl)benzene-1,3-diamine] stands 30 to 50%; under `COc1ccc(Nc2nccc3[nH]c(-c4ccncc4)nc23)cc1OC` [Compound 423, N-(3,4-dimethoxyphenyl)-2-(4-pyridyl)-1H-imidazo[4,5-c]pyridin-4-amine], over 100%. As to `CNc1nc2cnc(Nc3ccc(C(N)=O)cc3)cc2n1-c1cccc(C(F)(F)F)c1` [Compound 542, 4-[[2-(methylamino)-1-[3-(trifluoromethyl)phenyl]imidazo[4,5-c]pyridin-6-yl]amino]benzamide], the Emax was in the range of 30 to 50%.
